{"source": "patent US6156340A", "about": "“Orally administrable time release drug containing products” (Duquesne University of the Holy Ghost, priority 1996, dated 2000)", "origin": "cited, not measured here", "key": {"[1]": {"assay": "not given", "remark": "listed apart in the source"}, "[2]": {"settings": "repeated oral administration, long term therapy"}}}
{"smiles": "O=C(O)Cc1ccccc1Nc1c(Cl)cccc1Cl", "note": "[diclofenac sodium]", "values": [{"measurement": "absorption", "setting": "following oral administration", "result": "completely absorbed"}, {"measurement": "metabolism", "setting": "in vivo", "result": "extensive metabolism"}, {"measurement": "elimination half-life in plasma", "setting": "plasma", "result": "relatively short elimination half-life in plasma"}, {"measurement": "water solubility", "setting": "[1]", "result": "high water solubility"}, {"measurement": "side effects", "setting": "[2]", "result": "frequently causes gastrointestinal disturbances and may cause kidney failure"}]}
